The supplement of paper PMC11061612

What was measured:
[1] = tested on: 647-V (Bladder Carcinoma); test: combination Emax (second highest fraction inhibited in the dose matrix, 72 h); higher = more inhibition; extreme values may be limits of the assay
In short: (§1)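 After 24 hours at 37°C and 5% CO2 in 1536-well plates, cells in DMEM/F12 or RPMI plus 10% FBS received two-drug dose matrices for 72 hours. Viability came from CellTiter-Glo 2.0 luminescence and was scaled as inhibition, anchored at 0 by vehicle wells and at 1 by blank wells. Combination Emax is taken as the second-highest inhibition in the matrix, and Bliss excess as the observed combination effect less EA + EB − EA·EB, with EA and EB the single-agent effects.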

[2] = tested on: PA-TU-8902 (Pancreatic Carcinoma); test: as above
In short: as §1

[3] = tested on: HCC1143 (Breast Carcinoma); test: as above
In short: as §1

[4] = tested on: YT (Other Blood Carcinomas); test: as above
In short: as §1

[5] = tested on: SK-LMS-1 (Other Solid Carcinomas); test: as above
In short: as §1

[6] = tested on: EFM-192A (Breast Carcinoma); test: as above
In short: as §1

[7] = tested on: SW48 (Colorectal Carcinoma); test: Bliss excess, mean over the matrix (fraction); higher = more synergy
In short: as §1

[8] = tested on: TYK-nu (Ovarian Carcinoma); test: as above
In short: as §1

[9] = tested on: BICR78 (Oral Cavity Carcinoma); test: as above
In short: as §1

[10] = tested on: SKN-3 (Head and Neck Carcinoma); test: as above
In short: as §1

[11] = tested on: SNG-M (Endometrial Carcinoma); test: as above
In short: as §1

[12] = tested on: HLE (Hepatocellular Carcinoma); test: as above
In short: as §1

[13] = tested on: HCC1143 (Breast Carcinoma); test: as above
In short: as §1

[14] = tested on: SNU-61 (Colorectal Carcinoma); test: as above
In short: as §1

[15] = tested on: P31-FUJ (Acute Myeloid Leukemia); test: as above
In short: as §1

[16] = tested on: WSU-DLCL2 (B-Cell Non-Hodgkin's Lymphoma); test: as above
In short: as §1

MSTO-211H (Mesothelioma) = test: as above
In short: as §1

[17] = tested on: CAL-39 (Other Solid Carcinomas); test: as above
In short: as §1

[18] = tested on: KG-1 (Acute Myeloid Leukemia); test: as above
In short: as §1

HuO9 (Osteosarcoma) = test: as above
In short: as §1
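Wherever Bliss excess, mean over the matrix is given: after 72 h of two-drug dosing.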

SMILES | combination Emax [1] | combination Emax [2] | combination Emax [3] | combination Emax [4] | combination Emax [5] | combination Emax [6] | Bliss excess [7] | Bliss excess [8] | Bliss excess [9] | Bliss excess [10] | Bliss excess [11] | Bliss excess [12] | Bliss excess [13] | Bliss excess [14] | Bliss excess [15] | Bliss excess [16] | Bliss excess (MSTO-211H (Mesothelioma)) | Bliss excess [17] | Bliss excess [18] | Bliss excess (HuO9 (Osteosarcoma))
CN(CCO)CC[C@H](CSc1ccccc1)Nc1ccc(S(=O)(=O)NC(=O)c2ccc(N3CCC([C@@H](O)c4ccccc4-c4ccc(Cl)cc4)CC3)cc2)cc1S(=O)(=O)C(F)(F)F [AZD4320] + C1CN(CCC1(C(=O)N[C@@H](CCO)C2=CC=C(C=C2)Cl)N)C3=NC=NC4=C3C=CN4 [Capivasertib] (first compound max 1 µM, 7x7, partner max 3 µM) | 0.147 | 0.156 | 0.297 | 0.212 | 0.305 | 0.418 | 0.0148 | -0.038 | -0.0097 | -0.0375 | -0.054 | -0.126 | -0.0314 | -0.038 | 0.0452 | 0.0691 | -0.0162 | -0.0296 | 0.0226 | 0.0355
CN(CCO)CC[C@H](CSc1ccccc1)Nc1ccc(S(=O)(=O)NC(=O)c2ccc(N3CCC([C@@H](O)c4ccccc4-c4ccc(Cl)cc4)CC3)cc2)cc1S(=O)(=O)C(F)(F)F [AZD4320] + C=CCn1c(=O)c2cnc(Nc3ccc(N4CCN(C)CC4)cc3)nc2n1-c1cccc(C(C)(C)O)n1 [AZD1775] (first compound max 1 µM, partner max 1 µM) | 0.949 | 0.296 | 0.588 | 0.88 | 0.778 | 0.302 | 0.038 | -0.0845 | 0.0149 | -0.0056 | 0.104 | 0.0906 | -0.0111 | -0.0175 | 0.113 | -0.009 | 0.0585 | -0.0529 | 0.108 | 0.0484
CN(CCO)CC[C@H](CSc1ccccc1)Nc1ccc(S(=O)(=O)NC(=O)c2ccc(N3CCC([C@@H](O)c4ccccc4-c4ccc(Cl)cc4)CC3)cc2)cc1S(=O)(=O)C(F)(F)F [AZD4320] + CCN(CCO)CCCOc1ccc2c(Nc3cc(CC(=O)Nc4cccc(F)c4)[nH]n3)ncnc2c1 [AZD2811] (first compound max 1 µM, 7x7, partner max 1 µM) | 0.708 | 0.189 | 0.304 | 0.196 | 0.845 | 0.172 | -0.0226 | -0.0086 | -0.0008 | -0.0333 | 0.0407 | 0.0338 | -0.0091 | -0.0262 | -0.0531 | 0.201 | 0.0471 | 0.0236 | 0.0803 | 0.0376
CN(CCO)CC[C@H](CSc1ccccc1)Nc1ccc(S(=O)(=O)NC(=O)c2ccc(N3CCC([C@@H](O)c4ccccc4-c4ccc(Cl)cc4)CC3)cc2)cc1S(=O)(=O)C(F)(F)F [AZD4320] + CN(C)CCCOc1ccc(-c2ccc3ncc4c(c3c2)n(C2CCOCC2)c(=O)n4C)cn1 [AZD0156] (first compound max 1 µM, 7x7, partner max 1 µM) | 0.172 | 0.0883 | 0.252 | 0.623 | 0.371 | 0.234 | -0.0545 | -0.1 | -0.0268 | -0.0296 | -0.0467 | -0.0209 | 0.0124 | -0.0248 | 0.0814 | 0.0117 | 0.0078 | -0.0247 | 0.0215 | 0.0143
CN(CCO)CC[C@H](CSc1ccccc1)Nc1ccc(S(=O)(=O)NC(=O)c2ccc(N3CCC([C@@H](O)c4ccccc4-c4ccc(Cl)cc4)CC3)cc2)cc1S(=O)(=O)C(F)(F)F [AZD4320] + C[C@@H]1COCCN1C2=NC(=NC(=C2)C3(CC3)[S@](=N)(=O)C)C4=C5C=CNC5=NC=C4 [AZD6738] (first compound max 1 µM, 7x7, partner max 10 µM) | 0.816 | 0.341 | 0.842 | 0.811 | 0.866 | 0.349 | 0.0245 | -0.0115 | 0.0039 | -0.0127 | -0.0426 | 0.0036 | -0.0812 | -0.0406 | -0.0083 | 0.0329 | 0.0002 | -0.0685 | 0.0279 | -0.0242
CN(CCO)CC[C@H](CSc1ccccc1)Nc1ccc(S(=O)(=O)NC(=O)c2ccc(N3CCC([C@@H](O)c4ccccc4-c4ccc(Cl)cc4)CC3)cc2)cc1S(=O)(=O)C(F)(F)F [AZD4320] + C[C@@H](Nc1cc(F)cc(F)c1)c1cc(C(=O)N(C)C)cc2c(=O)cc(N3CCOCC3)oc12 [AZD8186] (first compound max 1 µM, 7x7, partner max 3 µM) | 0.989 | 0.387 | 0.418 | 0.676 | 0.94 | 0.345 | -0.0048 | -0.0224 | -0.0594 | 0.0112 | 0.0018 | -0.0428 | 0.0263 | 0.016 | 0.019 | 0.0852 | 0.0841 | 0.0175 | 0.066 | 0.0515
CN(CCO)CC[C@H](CSc1ccccc1)Nc1ccc(S(=O)(=O)NC(=O)c2ccc(N3CCC([C@@H](O)c4ccccc4-c4ccc(Cl)cc4)CC3)cc2)cc1S(=O)(=O)C(F)(F)F [AZD4320] + Cc1cc2ncnn2cc1Nc1ncc2c(n1)n(C1CCOCC1)c(=O)n2C [AZD7648] (first compound max 1 µM, 7x7, partner max 10 µM) | 0.219 | 0.144 | 0.282 | 0.675 | 0.447 | 0.226 | 0.0314 | -0.0405 | -0.0167 | -0.0463 | -0.0007 | -0.0295 | -0.0021 | -0.0254 | -0.0229 | 0.0591 | -0.0237 | -0.03 | 0.0526 | 0.0482
CN(CCO)CC[C@H](CSc1ccccc1)Nc1ccc(S(=O)(=O)NC(=O)c2ccc(N3CCC([C@@H](O)c4ccccc4-c4ccc(Cl)cc4)CC3)cc2)cc1S(=O)(=O)C(F)(F)F [AZD4320] + Cn1cnc2c(F)c(Nc3ccc(Br)cc3Cl)c(C(=O)NOCCO)cc21 [Selumetinib] (first compound max 1 µM, 7x7, partner max 3 µM) | 0.971 | 0.7 | 0.361 | 0.737 | 0.924 | 0.284 | -0.0159 | -0.0839 | 0.0362 | 0.0268 | 0.0038 | -0.0142 | 0.0112 | 0.0604 | 0.125 | 0.0155 | 0.0146 | 0.0039 | 0.0452 | 0.041
COc1nnc2ccc(N3CCC(c4ccc(OCCN5CCN(C)C(=O)[C@H]5C)cc4)CC3)nn12 [AZD5153] + C=CCn1c(=O)c2cnc(Nc3ccc(N4CCN(C)CC4)cc3)nc2n1-c1cccc(C(C)(C)O)n1 [AZD1775] (first compound max 1 µM, partner max 1 µM) | 0.637 | 0.502 | 0.677 | 0.917 | 0.592 | 0.391 | -0.0699 | -0.04 | -0.0302 | -0.0342 | 0.0898 | 0.0069 | -0.0047 | -0.0041 | -0.0392 | -0.0085 | -0.121 | -0.0493 | 0.004 | -0.035
COc1nnc2ccc(N3CCC(c4ccc(OCCN5CCN(C)C(=O)[C@H]5C)cc4)CC3)nn12 [AZD5153] + CC1(C)CCC(CN2CCN(c3ccc(C(=O)NS(=O)(=O)c4ccc(NCC5CCOCC5)c([N+](=O)[O-])c4)c(Oc4cnc5[nH]ccc5c4)c3)CC2)=C(c2ccc(Cl)cc2)C1 [Venetoclax] (first compound max 1 µM, 7x7, partner max 1 µM) | 0.463 | 0.275 | 0.357 | 0.714 | 0.507 | 0.326 | -0.0081 | -0.0887 | -0.0468 | -0.0576 | -0.0875 | -0.0522 | -0.0247 | -0.0374 | -0.0447 | 0.0805 | -0.111 | -0.0432 | 0.163 | -0.0198
COc1nnc2ccc(N3CCC(c4ccc(OCCN5CCN(C)C(=O)[C@H]5C)cc4)CC3)nn12 [AZD5153] + CCN(CCO)CCCOc1ccc2c(Nc3cc(CC(=O)Nc4cccc(F)c4)[nH]n3)ncnc2c1 [AZD2811] (first compound max 1 µM, 7x7, partner max 1 µM) | 0.545 | 0.323 | 0.431 | 0.666 | 0.548 | 0.361 | -0.0821 | -0.0658 | -0.0537 | -0.0436 | -0.0158 | -0.0177 | -0.0474 | -0.0074 | -0.0293 | -0.019 | -0.0182 | -0.0508 | 0.0074 | -0.0983
COc1nnc2ccc(N3CCC(c4ccc(OCCN5CCN(C)C(=O)[C@H]5C)cc4)CC3)nn12 [AZD5153] + C[C@@H]1COCCN1C2=NC(=NC(=C2)C3(CC3)[S@](=N)(=O)C)C4=C5C=CNC5=NC=C4 [AZD6738] (first compound max 1 µM, 7x7, partner max 10 µM) | 0.789 | 0.392 | 0.824 | 0.923 | 0.61 | 0.524 | -0.109 | -0.0386 | 0.0056 | 0.0128 | -0.0014 | 0.0608 | -0.0036 | 0.0459 | -0.0685 | -0.0467 | -0.0354 | -0.011 | 0.0159 | 0.031
COc1nnc2ccc(N3CCC(c4ccc(OCCN5CCN(C)C(=O)[C@H]5C)cc4)CC3)nn12 [AZD5153] + Cc1c2c(nn1C)CSCc1cc(n(C)n1)CSc1cc(c3ccccc3c1)OCCCc1c(C(=O)O)n(C)c3c-2c(Cl)ccc13 [AZD5991] (first compound max 1 µM, 7x7, partner max 1 µM) | 0.587 | 0.345 | 0.565 | 1 | 0.5 | 0.665 | 0.015 | -0.0363 | -0.027 | -0.0234 | -0.0033 | 0.0047 | 0.0412 | -0.0178 | -0.0869 | 0.0182 | 0.0307 | 0.0313 | 0.0382 | 0.0377
